Reference: paper PMC10957239 (Carbohydrate research, 2024)

Biological target: T1, rhDectin-2 (Homo sapiens, UniProt Q6EIG7)
T1 sequence (Q6EIG7 42-209 limits assumed): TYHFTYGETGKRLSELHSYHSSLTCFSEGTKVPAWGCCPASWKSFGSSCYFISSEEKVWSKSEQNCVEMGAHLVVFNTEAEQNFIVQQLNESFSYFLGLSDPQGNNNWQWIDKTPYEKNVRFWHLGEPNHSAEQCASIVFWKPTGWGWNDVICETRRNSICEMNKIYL
Test: biolayer interferometry
Assay type: binding

Kd: 13.6 µM
Compound: C=CCO[C@H]1O[C@H](CO)[C@@H](OP(=O)(O)O[C@H]2O[C@H](CO)[C@@H](O)[C@H](O)[C@@H]2O)[C@H](O)[C@@H]1O [compound 7, Allyl α-D-mannopyranoside α-D-mannopyranosyl-4-sodium phosphate]
